Reference: PubChem BioAssay (NCI)
Where “and” joins values, the source holds several entries; their conditions need not be identical. Identical values can stand only once.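 Five compound concentrations were applied to cells in 96-well plates for 48 hours; endpoints were derived by simple linear interpolation of the resulting dose-response curve. At the GI50, growth is halved. The concentration for full growth arrest is given as TGI.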

Tests used:
Assay in all cases: inhibition of tumour cell growth, NCI panel, 48 h
A549 NSCLC = tested on: A549 NSCLC
MCF7 breast = tested on: MCF7 breast
NCI/ADR-RES ovarian = tested on: NCI/ADR-RES ovarian
OVCAR-8 ovarian = tested on: OVCAR-8 ovarian
RPMI-8226 leukemia = tested on: RPMI-8226 leukemia
SF-295 CNS = tested on: SF-295 CNS
SF-539 CNS = tested on: SF-539 CNS
SK-MEL-2 melanoma = tested on: SK-MEL-2 melanoma
SNB-75 CNS = tested on: SNB-75 CNS
SR leukemia = tested on: SR leukemia

Row | Structure (SMILES) | GI50 (A549 NSCLC) | TGI (A549 NSCLC) | GI50 (MCF7 breast) | TGI (MCF7 breast) | GI50 (NCI/ADR-RES ovarian) | TGI (NCI/ADR-RES ovarian) | GI50 (OVCAR-8 ovarian) | TGI (OVCAR-8 ovarian) | GI50 (RPMI-8226 leukemia) | TGI (RPMI-8226 leukemia) | GI50 (SF-295 CNS) | TGI (SF-295 CNS) | GI50 (SF-539 CNS) | TGI (SF-539 CNS) | GI50 (SK-MEL-2 melanoma) | TGI (SK-MEL-2 melanoma) | GI50 (SNB-75 CNS) | TGI (SNB-75 CNS) | GI50 (SR leukemia) | TGI (SR leukemia)
1 | OCc1ccc(-c2csc(-c3ccc(CO)o3)c2)o1 | 15.3 µM | 64.9 µM | 0.752 µM | > 95 µM | 26.9 µM | > 100 µM | 31.5 µM | > 100 µM | 28.3 µM | > 100 µM | 13.9 µM | > 100 µM | 99.7 µM | > 100 µM | 40.9 µM | > 100 µM | > 55.3 µM | > 100 µM | 26.8 µM | > 100 µM
2 | CCn1c(-c2nonc2N)nc2c(C#CC(C)(C)O)ncc(OC3CCNCC3)c21 | > 25 µM | > 25 µM | 3.93 µM | > 22.5 µM | > 25 µM | > 25 µM | 12.9 µM | > 25 µM | > 25 µM | > 25 µM | 9.09 µM | > 25 µM | 2.95 µM | > 25 µM | 8.01 µM | 19.4 µM | 1.42 µM | > 25 µM | 9.64 µM | > 21.3 µM
3 | O=C(CCCn1c2c(sc3ccccc32)c(=O)n2nnc(-c3ccccc3)c12)NCCc1cnc[nH]1 | – | – | 1.1 µM | 2.43 µM | 0.972 µM | > 24.4 µM | – | 2.99 µM | – | – | 0.456 µM | 2.11 µM | < 0.0144 µM | 0.111 µM | 2.37 µM | 4.98 µM | 1.95 µM | 3.51 µM | 0.356 µM | 5.61 µM
4 | CN1CC=C(c2cc(NC(=O)Nc3ccc(Oc4ccnc(NC(=O)C5CC5)c4)c(F)c3)cc(C(F)(F)F)c2)CC1 | 0.247 µM | 1.8 µM | 0.153 µM | 0.693 µM | 2.71 µM | 13.4 µM | 0.238 µM | 5.12 µM | – | – | 0.933 µM | 2.94 µM | 0.888 µM | 1.86 µM | 1.13 µM | 2.26 µM | 1.53 µM | 2.95 µM | 0.152 µM | 0.863 µM
5 | COc1cc2c(c(O)c1Cl)C(=O)c1c(O)cc(C[C@H](C)O)cc1[C@H]2[C@H]1c2cc(C[C@H](C)O)cc(O)c2C(=O)c2c1cc(OC)c(Cl)c2O | – | 75 µM and > 100 µM | – | 75 µM and 94.4 µM | 54.8 µM and 58.8 µM | 75 µM and > 100 µM | – | 75 µM and > 100 µM | – | 75 µM and 74.4 µM | – | 5.91 µM and 53.6 µM | – | – | – | – | – | 16.4 µM and 70.3 µM | – | 75 µM and > 100 µM
6 | N#CC(C#N)=NNc1ccc2cn[nH]c2c1 | – | > 100 µM | – | > 100 µM | – | > 100 µM | – | > 100 µM | – | 65.4 µM | – | > 100 µM | – | > 100 µM | – | > 100 µM | – | – | – | 55.5 µM
7 | O=C1/C(=C/c2ccc([N+](=O)[O-])s2)Oc2cc(Cl)ccc21 | 2.67 µM | > 100 µM | 0.944 µM | > 100 µM | 3.02 µM | > 100 µM | 0.469 µM | 2.59 µM | 0.382 µM | 2.23 µM | 4.46 µM | > 100 µM | – | – | 1.45 µM | 3.33 µM | 2.04 µM | 11.6 µM | 0.303 µM | 1.24 µM
8 | COc1ccc(-c2coc3cc(O)ccc3c2=O)cc1 | – | > 100 µM | – | > 100 µM | – | > 100 µM | – | > 100 µM | – | – | – | > 100 µM | – | > 100 µM | – | > 100 µM | – | > 100 µM | – | > 100 µM
9 | N#CC(C#N)=CNCCN1CCN(C=C(C#N)C#N)CC1 | – | > 100 µM | – | > 100 µM | – | > 100 µM | – | > 100 µM | – | > 100 µM | – | > 100 µM | – | > 100 µM | – | > 100 µM | – | – | – | > 100 µM
10 | COC1=CC(c2ccc[nH]2)=N/C1=C\c1[nH]c(C)c(C(=O)CCC(=O)Oc2ccc3c(c2)CCC2C3CC[C@]3(C)[C@@H](O)CC[C@@H]23)c1C (some centres not stated) | 2.47 µM | 9.18 µM | 0.917 µM | > 100 µM | 4.58 µM | > 100 µM | 3.94 µM | > 100 µM | – | – | 4 µM | 20.4 µM | 3.69 µM | 28.8 µM | 3.52 µM | 17.8 µM | 4.56 µM | 58.4 µM | 0.643 µM | 5.1 µM
11 | CC(=O)OCC12CN(C#N)C3C4COC(CC41)C1(C(=O)N(C)c4ccccc41)C32 (configuration not stated) | – | > 100 µM | – | 41.4 µM | – | 95.8 µM | – | 55 µM | – | > 100 µM | – | > 100 µM | – | – | – | 63.6 µM | – | 91.4 µM | – | 68.3 µM
12 | CCCCCCCCCCCCCC[n+]1ccccc1 | 1.22 µM | 2.84 µM | 0.489 µM | 2.66 µM | 8.65 µM | 46.8 µM | – | – | 0.303 µM | 1.33 µM | 0.9 µM | 2.62 µM | 1.28 µM | 2.6 µM | 0.592 µM | 2.19 µM | 0.523 µM | 2.22 µM | 0.499 µM | 2.94 µM
